The data set can be described thus: In vitro solubilization kinetics in buffer solution. In kind it is physicochemical. The following applies: buffer pH 7.4, 37° C., HPLC. As for the experimental part:
Solubilization Kinetics of the Double Microemulsions of the Invention
The “in vitro” solubilization kinetics was determined in buffer solution (pH 7.4, 37° C.); sample of the double microemulsion under testing is dispersed in tubes filled with 50 ml of buffer solution and placed over a thermostated shaking plate; at predetermined time intervals samples of the solution were filtered and then ultra-centrifuged; drug concentration was determined by HPLC, data are reported in Table 2.

Molecules are shown by their SMILES.

As to `CCC(C)n1ncn(-c2ccc(N3CCN(c4ccc(OCC5COC(Cn6cncn6)(c6ccc(Cl)cc6Cl)O5)cc4)CC3)cc2)c1=O` (centres unmarked) [Itraconazole pure dispersion, Itraconazole], the Drug concentration by setting is: (0.5 hr) 50 ng/mL; (1 hr) 100 ng/mL; (3 hr) 300 ng/mL; (8 hr) 500 ng/mL; (24 hr) 1500 ng/mL.

Values taken from patent publication US20090202596A1, “PHARMACEUTICAL COMPOSITIONS WITH BIOLOGICAL BARRIERS PERMEATION ENHANCING PROPERTIES” (FARMATRON LIMITED, priority 2006, published 2009).
